Legend:
h-TGR5 = target: T1, h-TGR5 (Homo sapiens, UniProt Q8TDU6); experiment: TGR5 cAMP Assay using Cisbio cAMP Dynamic 2 htrf assay kit; type: cell-based; settings: hTGR5CRE-luc HEK 293 cells
T1 sequence (Q8TDU6 1-330): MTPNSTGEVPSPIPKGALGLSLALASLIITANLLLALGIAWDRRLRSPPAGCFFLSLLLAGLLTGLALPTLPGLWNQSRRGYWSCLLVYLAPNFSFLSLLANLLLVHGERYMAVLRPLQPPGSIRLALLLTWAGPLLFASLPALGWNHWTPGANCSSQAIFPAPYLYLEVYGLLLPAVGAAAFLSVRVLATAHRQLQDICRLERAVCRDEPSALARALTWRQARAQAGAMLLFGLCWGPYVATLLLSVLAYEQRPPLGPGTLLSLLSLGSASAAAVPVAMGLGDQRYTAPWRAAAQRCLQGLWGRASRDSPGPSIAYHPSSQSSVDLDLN

human TGR5 (h-TGR5) = target: T2, human TGR5 (h-TGR5) (Homo sapiens, UniProt Q8TDU6); experiment: TGR5/CRE-Luciferase Assay; type: cell-based; settings: HEK 293 hTGR5/CRE-Luc cells, 6 hours incubation, read-out: CRE-Luc Agonist (EC50)
T2 sequence (Q8TDU6 1-330): T1 sequence (Q8TDU6 1-330)
How it was run: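 HEK 293 CRE-Luciferase cells stably expressing the receptor, plated in DMEM 18-20 h before assay, then exposed to serially diluted compounds (DMEM with 5% DMSO) for 6 h. Luciferase read-out after lysis; EC50 from dose-response.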

EC50 (h-TGR5)	EC50 (human TGR5 (h-TGR5))	Structure (SMILES)
< 100 nM	< 100 nM	COc1cc(-n2c(C(C)(C)c3ccc(Cl)c(Cl)c3)cnc2SCc2c(F)cc(C(=O)N[C@H]3CC[N+](C)(C)C3)cc2Cl)ccc1F [Example 2r, (3S)-3-[({3-chloro-4-[({5-[1-(3,4-dichlorophenyl)-1-methylethyl]-1-[4-fluoro-3-(methyloxy)phenyl]-1H-imidazol-2-yl}thio)methyl]-5-fluorophenyl}carbonyl)amino]-1,1-dimethylpyrrolidinium]
< 100 nM	< 100 nM	COc1cc(C(C)(C)c2cnc(SCc3c(F)cc(C(=O)NCC[N+](C)(C)CCCS(=O)(=O)[O-])cc3Cl)n2-c2ccc(F)cc2)ccc1Cl [Example 4, 3-((2-(3-Chloro-4-((5-(2-(4-chloro-3-methoxyphenyl)propan-2-yl)-1-(4-fluorophenyl)-1H-imidazol-2-ylthio)methyl)-5-fluorobenzamido)ethyl)dimethylammonio)-propane-1-sulfonate]
< 100 nM	< 100 nM	COc1cc(C(C)(C)c2cnc(SCc3c(F)cc(NC(=O)NCC[N+](C)(C)C)cc3Cl)n2-c2ccc(F)cc2)ccc1Cl [Example 5]
< 100 nM	< 100 nM	COc1cc(C(C)(C)c2nnc(SCc3c(F)cc(S(=O)(=O)NCCC[N+](C)(C)C)cc3F)n2-c2ccc(F)cc2)ccc1Cl [Example 6d, 3-({[4-({[5-{1-[4-chloro-3-(methyloxy)phenyl]-1-methylethyl}-4-(4-fluorophenyl)-4H-1,2,4-triazol-3-yl]thio}methyl)-3,5-difluorophenyl]sulfonyl}amino)-N,N,N-trimethylpropan-1-aminium]
< 100 nM	< 100 nM	COc1cc(C(C)(C)c2cnc(SCc3c(F)cc(S(=O)(=O)NCCC[N+](C)(C)C)cc3F)n2-c2ccc(F)cc2)ccc1F [Example 6f, 3-({[3,5-difluoro-4-({[5-{1-[4-fluoro-3-(methyloxy)phenyl]-1-methylethyl}-1-(4-fluorophenyl)-1H-imidazol-2-yl]thio}methyl)phenyl]sulfonyl}amino)-N,N,N-trimethylpropan-1-aminium]
100 to 1000 nM	100 to 1000 nM	COC(=O)c1cc(-n2c(C(C)(C)c3ccc(Cl)c(OC)c3)cnc2SCc2c(F)cc(S(=O)(=O)NCCC[N+](C)(C)C)cc2F)ccc1F [Example 6g, 3-{[(4-{[(5-{1-[4-chloro-3-(methyloxy)phenyl]-1-methylethyl}-1-{4-fluoro-3-[(methyloxy)carbonyl]phenyl}-1H-imidazol-2-yl)thio]methyl}-3,5-difluorophenyl)sulfonyl]amino}-N,N,N-trimethylpropan-1-aminium]
< 100 nM	100 to 1000 nM	COc1cc(C(C)(C)c2cnc(SCc3c(F)cc(S(=O)(=O)N(CCC[N+](C)(C)C)CCC[N+](C)(C)C)cc3F)n2-c2ccc(F)cc2)ccc1Cl [Example 6i, 3,3′-({[4-({[5-{1-[4-chloro-3-(methyloxy)phenyl]-1-methylethyl}-1-(4-fluorophenyl)-1H-imidazol-2-yl]thio}methyl)-3,5-difluorophenyl]sulfonyl}imino)bis(N,N,N-trimethylpropan-1-aminium)]

More lines, now with the values behind:

Structure (SMILES)	EC50 (h-TGR5)	EC50 (human TGR5 (h-TGR5))
COc1cc(C(C)(C)c2cnc(SCc3c(F)cc(C(=O)NC4CC[N+](C)(CC(=O)O)CC4)cc3Cl)n2-c2ccc(F)cc2)ccc1Cl (centres unmarked) [Example 3, 1-(Carboxymethyl)-4-(3-chloro-4-((5-(2-(4-chloro-3-methoxyphenyl)propan-2-yl)-1-(4-fluorophenyl)-1H-imidazol-2-ylthio)methyl)-5-fluorobenzamido)-1-methyl-piperidinium 2,2,2-trifluoroacetate]	< 100 nM	< 100 nM
COc1cc(C(C)(C)c2cnc(SCc3c(F)cc(S(=O)(=O)NCCC[N+](C)(C)C)cc3F)n2-c2ccc(F)cc2)ccc1Cl [Example 6, 3-(4-((5-(2-(4-Chloro-3-methoxyphenyl)propan-2-yl)—(4-fluorophenyl)-1H-imidazol-2-ylthio)methyl)-3,5-difluorophenylsulfonamido)-N,N,N-trimethylpropan-1-aminium 2,2,2-trifluoroacetate]	< 100 nM	< 100 nM
COc1cc(C(C)(C)c2cnc(SCc3c(F)cc(S(=O)(=O)NCCC[N+](C)(C)C)cc3Cl)n2-c2ccc(F)cc2)ccc1F [Example 6a, 3-({[3-chloro-5-fluoro-4-({[5-{1-[4-fluoro-3-(methyloxy)phenyl]-1-methylethyl}-1-(4-fluorophenyl)-1H-imidazol-2-yl]thio}methyl)phenyl]sulfonyl}amino)-N,N,N-trimethylpropan-1-aminium]	< 100 nM	< 100 nM
COc1cc(-n2c(C(C)(C)c3ccc(S(N)(=O)=O)c(Cl)c3)cnc2SCc2c(F)cc(S(=O)(=O)NCCC[N+](C)(C)C)cc2F)ccc1F [Example 6b, 3-{[(4-{[(5-{1-[4-(aminosulfonyl)-3-chlorophenyl]-1-methylethyl}-1-[4-fluoro-3-(methyloxy)phenyl]-1H-imidazol-2-yl)thio]methyl}-3,5-difluorophenyl)sulfonyl]amino}-N,N,N-trimethylpropan-1-aminium]	< 100 nM	< 100 nM
CC[N+](CC)(CC)CCCNS(=O)(=O)c1cc(F)c(CSc2ncc(C(C)(C)c3ccc(Cl)c(OC)c3)n2-c2ccc(F)cc2)c(Cl)c1 [Example 6c, 3-({[3-chloro-4-({[5-{1-[4-chloro-3-(methyloxy)phenyl]-1-methylethyl}-1-(4-fluorophenyl)-1H-imidazol-2-yl]thio}methyl)-5-fluorophenyl]sulfonyl}amino)-N,N,N-triethylpropan-1-aminium]	< 100 nM	< 100 nM
COc1cc(-n2c(C(C)(C)c3ccc(Cl)c(Cl)c3)cnc2SCc2c(F)cc(S(=O)(=O)NCCC[N+](C)(C)C)cc2F)ccc1F [Example 6e, 3-[({4-[({5-[1-(3,4-dichlorophenyl)-1-methylethyl]-1-[4-fluoro-3-(methyloxy)phenyl]-1H-imidazol-2-yl}thio)methyl]-3,5-difluorophenyl}sulfonyl)amino]-N,N,N-trimethylpropan-1-aminium]	< 100 nM	< 100 nM
COc1cc(-n2c(C(C)(C)c3ccc(F)c(Cl)c3)cnc2SCc2c(F)cc(S(=O)(=O)NCCC[N+](C)(C)C)cc2F)ccc1F [Example 6h, 3-[({4-[({5-[1-(3-chloro-4-fluorophenyl)-1-methylethyl]-1-[4-fluoro-3-(methyloxy)phenyl]-1H-imidazol-2-yl}thio)methyl]-3,5-difluorophenyl}sulfonyl)amino]-N,N,N-trimethylpropan-1-aminium]	< 100 nM	< 100 nM
COc1cc(C(C)(C)c2cnc(SCc3c(F)cc(S(=O)(=O)NCCC[N+](C)(C)C)cc3Cl)n2-c2ccc(F)cc2)ccc1Cl [Example 6j, 3-({[3-chloro-4-({[5-{1-[4-chloro-3-(methyloxy)phenyl]-1-methylethyl}-1-(4-fluorophenyl)-1H-imidazol-2-yl]thio}methyl)-5-fluorophenyl]sulfonyl}amino)-N,N,N-trimethylpropan-1-aminium]	< 100 nM	< 100 nM
COc1cc(C(C)(C)c2cnc(SCc3c(F)cc(S(=O)(=O)NCC[N+](C)(C)C)cc3F)n2-c2ccc(F)cc2)ccc1Cl [Example 6k, 2-({[4-({[5-{1-[4-chloro-3-(methyloxy)phenyl]-1-methylethyl}-1-(4-fluorophenyl)-1H-imidazol-2-yl]thio}methyl)-3,5-difluorophenyl]sulfonyl}amino)-N,N,N-trimethylethanaminium]	< 100 nM	< 100 nM
